Tests used:
[1] = tested on: cancer therapy cardiotoxicity; settings: in vivo; cited from earlier work
[2] = tested on: I/R injury; settings: in vivo; cited from earlier work
[3] = tested on: infarct size in STEMI patients; settings: cited from earlier work; for infarct size / effect in patients: clinical trials, administered prior to PPCI
[4] = tested on: myocardial infarction model in mice; assay: In vivo myocardial infarction (ischemia/reperfusion) model in mice, infarct size; settings: 24 h reperfusion; for effect on infarct size (in words): given 5 min before reperfusion
Description: (§1) In vivo myocardial infarction model in mice. […] Sodium chloride injection (50 μl) served as control treatment.
Infarct size measurement. For analysis of infarct size, mice were euthanized after 24 hours of reperfusion; hearts were excised and perfused with PBS over 5 min. After perfusion, the LCA was re-ligated in the same location as explicated before. Evans blue dye (1 ml of a 1% solution) was injected into the aorta and coronary arteries for delineation of the ischemic AAR from the non-ischemic zone. The tissue was wrapped in a clear food wrap and stored for one hour in a −20° C. freezer. The heart was then serially sectioned perpendicularly to the long axis in 1 mm slices, and each slice was weighed. The sections were incubated in 1% TTC for 5 min at 37° C. for demarcation of the viable and non-viable myocardium within the risk zone. Infarction, AAR, and non-ischemic left ventricle were assessed with computer-assisted planimetry by an observer blinded to sample identity. The size of the myocardial infarction was expressed as a percentage of the AAR.

[5] = tested on: human ventricular cardiomyocytes derived from human induced pluripotent stem cells (humanCM); assay: In vitro reoxygenation after hypoxia in humanCM; format: cell-based; settings: 2 h of reoxygenation after hypoxia; for mitochondrial inner membrane depolarization / loss of mitochondrial inner membrane potential: JC-1
Description: Cell culture. Human iPSC-derived ventricular cardiomyocytes (humanCM) were obtained from (axol) and were cultivated according to the manufacture's specification.
To simulate vessel occlusion, cells were incubated in buffer (113 mM NaCl, 4.7 mM KCl, 12 mM HEPES, 1.2 mM MgSO4, 30 mM taurine, 1.3 mM CaCl2), pH 7.4) under 1% O2, 37° C. Reoxygenation was performed in buffer supplemented with 5.5 mM glucose under 21% O2, 37° C.
JC-1 Assay. To analyze mitochondrial inner membrane potential in humanCM cells were stained with 5′,6,6′-tetrachloro-1,1′,3,3′-tetraethylbenzimidazolylcarbocyanin Iodid (JC-1). Cells were incubated with 6 μM JC-1 in media at 37° C. for 30 min. After washing cells with PBS buffer at 37° C. they were fixed with 4% PFA for 15 min at room temperature. DAPI staining was performed and cells were analysed using EVOS FL (life Technologies).

[6] = tested on: BNIP3 and BAX interaction with mitochondria; assay: Mechanistic read-outs in the area at risk of mouse hearts after vessel occlusion and reperfusion; format: in vivo, mice; settings: for BNIP3 (and BAX) translocation to / interaction with mitochondria: after 10 min of reperfusion, peptide 5 min before reperfusion
Description: as §1
Immunoblotting. Tissue and human CM cells were lysed in a RIPS buffer (50 mM Tris-HCl, 150 mM NaCl, 0.5 mM EDTA, 1% NP-40 and protease- and phosphatase inhibitor, pH 7.4). Isolated mitochondria were lysed in a Mito-lyse buffer (200 mM sucrose, 10 mM HEPES, 1 mM EGTA, 1% Triton-X100 and protease- and phosphatase inhibitor, pH 7.4). The lysates were cleared by centrifugation (20.000×g, 15 min, 4° C.). Protein concentrations in supernatant were measured using DC Protein Assay (Bio-Rad). Samples were diluted into 4×LDS sample buffer and 10× Reducing Agent (Invitrogen) and were prepared for SDS-PAGE by heating to 95° C. for 5 min. Equivalent amounts of protein were separated using 4-12% Bis-Tris Gels (Invitrogen), transferred on to nitrocellulose and immunoblotted with primary antibodies. The used secondary antibodies were horseradish peroxidise conjugated goat anti-mouse or anti-rabbit IgG (Invitrogen). Immunoblotting was detected by ECL (Thermo Scientific) and imaged on an Imager 600 (Amersham).
Immunoprecipitation. Immunoprecipitation were performed using protein G-coupled Dynabeads (Invitrogen). 500 μg lysed proteins were incubated with 2 μg antibody over night at 4° C. with shaking in PBS buffer containing 1 mM DTT, 0.005% Brij35 and protease-phosphatase inhibitors. Next day 20 μl Dynabeads were added and the solution was incubated again for 1 h. The precipitated immune complex was washed 2 times and then resuspended in eluation buffer containing LDS-Sample Buffer (1:4) und Reducing Agent (1:10) (Invitrogen) in PBS and heated for 5 min at 95° C. After removal of the Dynabeads the Eluate were analysed via immunoblotting.
Caspase-3 activity was measured using the Caspase 3 Assay Kit from Abcam (#ab39401). Murine hearts were harvested after 30 min ischemia and 4 h reperfusion, area at risk was isolated, lysed in containing buffer and the assay was performed according to manufacturer's instructions.
(§2) Swelling Assay. Mitochondrial swelling was measured by light scattering at 540 nm in a microplate absorbance reader FLUOstar Omega (BMG Labtech) at RT. The final assay volume was 200 μl, containing mitochondria at 0.5 mg/ml in buffer containing 250 mM sucrose, 10 mM HEPES, […], pH 7.4.

[7] = tested on: HL-1 cells; assay: Doxorubicin-induced mitochondrial swelling in HL-1 cells (OD540); format: cell-based; settings: 5 μM Doxorubicin given simultaneously, 30 min
Description: HL-1 cells were cultured in Claycomb medium as per manufacturer's protocol. The cells were treated with 5 μM Doxorubicin and 2 nmol TAT-BNIP3-8B for 30 min.
as §2

[8] = tested on: isolated adult cardiomyocytes; settings: survival after 24 h
Description: FIG. 7. A Uptake of fluorescence labelled TAT-BNIP3-8B in different organs after 5 min of reperfusion post vessel occlusion. TAT-BNIP3-8B was given 5 min before starting reperfusion. B Survival of isolated adult cardiomyocytes treated with TAT-BNIP3-8B and TAT-BNIP3-8C control peptide after 24 h.

[9] = 37° C.
Description: FIG. 8. TAT-BNIP3-8B pharmacokinetics. Fluorescence labelled BNIP3-8B was incubated in human serum (A), plasma (B), and whole blood (C) at 37° C. for indicated time durations and monitored by Western blot. Proteinase K treatment served as control.

[10] = tested on: transient middle cerebral artery occlusion (tMCAO); assay: Mouse model of focal cerebral reperfusion (tMCAO), brain infarct size; format: in vivo; settings: 24 h of reperfusion after 30-min tMCAO, vs vehicle
Description: We subjected mice to 24 h of reperfusion after a 30-min transient middle cerebral artery occlusion (tMCAO). BNIP3-8B treatment immediately post tMCAO markedly reduces the infarct size by 52% (FIG. 12).

[11] = target: BNIP3 (Mus musculus, UniProt O55003); assay: BNIP3/TAT-BNIP3-8B overlay assay and docking simulation; format: binding; settings: data not shown
Description: Docking Simulation. Experiments were performed using Autodock Vina^52 and HADDOCK^53. The structure of BAX (pdb-ID: 4S0O) was taken from the Protein Data Bank, whereas the structure of BNIP3 and peptide BNIP3-8B were modelled using Modeller9.15^47. The template structures correspond to PDB codes 2k7w and 2ka1. The created model was energy minimized using NAMD2.9^54 and the CHARMM36 force field.

[12] = tested on: myocardial infarction model in swine; assay: In vivo myocardial infarction model in pigs, infarct size; settings: 60 min LAD occlusion, 4 h of reperfusion, IV 5 min before reperfusion, vs vehicle
Text: In vivo myocardial infarction model in pigs. Following induction of anesthesia, a small incision was made over the femoral artery and vein; the vessels were isolated. A small opening was made in the artery and a sheath was introduced. In addition, a sheath was placed in the femoral vein or other appropriate vein to allow for emergency drug administration if necessary. A blood sample was taken prior to administration of heparin and was used to establish a baseline Activated Clotting Time (ACT) which was recorded. Subsequently, as directed by the surgeon, heparin (250 to 350 IU/kg) was administered as needed to achieve and maintain an ACT that is two times the level of the baseline ACT. Following the initial bolus of heparin ACT was recorded again and monitored at least every 60 minutes thereafter, until completion of surgery.
An appropriate guide catheter was advanced into the ostium of the left anterior descending artery (LAD) using visual guidance provided by fluoroscopy. Non-ionic contrast was used for all procedures. A balloon catheter was introduced by advancing it through the guide catheter to the left anterior descending (LAD) coronary artery. The balloon was advanced into the coronary arteries through a guide catheter to a suitable place above the 1st diagonal branch of the LAD. […] Incidence supportive drugs and defibrillation were recorded in the study record. […]

[13] = after reperfusion post vessel occlusion, peptide given 5 min before reperfusion
Description: In vivo myocardial infarction model in mice. Wild-type and Bnip3 deficient (Bnip3^−/−) mice were anesthetized by i.p. injection of ketamine (100 mg/kg) and xylazin (10 mg/kg) and intubated. Mechanical ventilation parameters were set to a tidal volume of 2.1 to 2.5 ml and a respiratory rate of 140 breaths per min using a mouse mini-ventilator. Deep anaesthesia was maintained by adding 2 vol % isoflurane to the ventilation gas. The chest was opened through a lateral thoracotomy (1 cm left lateral incision between the 3rd and 4th ribs). A 6-0 prolene suture was placed around the left coronary artery (LCA) and a piece of soft silicon tubing placed over the artery. Coronary occlusion was achieved by tightening and tying the suture. After 30 min of occlusion, the silicon tubing was removed and the suture left in place. For longer reperfusion times the chest were closed using 4-0 prolene. 2, 6 and 9 nmol (in 50 μl 0.9% sodium chloride) BNIP3 were injected into the left ventricular cavity 5 min before vessel occlusion. Peptides with 20 amino acids (2 nmol/50 μl) and peptides with 8 amino acids (8 nmol/50 μl) in NaCl were injected 5 min before reperfusion. Sodium chloride injection (50 μl) served as control treatment.
Peptides. […] For uptake and binding studies, peptides were labelled with a fluorophore.

For COc1ccccc1OCCNCC(O)COc1cccc2[nH]c3ccccc3c12 (stereo not shown) [carvedilol], the “prevention of cardiotoxicity / cardiomyopathy in cancer patients” value [1] is listed as “failed to show a benefit”.

For CC(C)CCC[C@@H](C)[C@H]1CC[C@H]2[C@@H]3CC/C(=N\O)[C@](C)(CCCO)[C@H]3CC[C@]12C [TRO40303], the “infarct size in animal / pre-clinical studies” value [2] is given as “reduce infarct size”, the “infarct size / effect in patients” value [3] is given as “failed to reduce infarct size” and the “adverse events in patients” value ([3]; compared with the placebo arm) is given as “more adverse events”.

For elamipretide, the “infarct size in animal / pre-clinical studies” value [2] is listed as “reduce infarct size” and the “infarct size / effect in patients” value [3] is listed as “failed to reduce infarct size”.

For “TAT-BNIP3-8C: control peptide: BNIP3-8B with Phe-18 to Ala-18 and His-17 to Ala-17 substitutions (WVELAASN)”, the “effect on infarct size (in words)” value ([4]; wild-type mice) was “does not appreciably affect the infarct size”, the “apoptotic and necrotic cell death” value [5] was “not effective” and the “mitochondrial inner membrane depolarization / loss of mitochondrial inner membrane potential” value [5] was “not effective”. The “BNIP3 (and BAX) translocation to / interaction with mitochondria” value (from here on “BNIP3 … to / interaction with mitochondria”) [6] was “does not”.

In the case of “TAT-BNIP3-20C: control peptide: TAT PTD attached to amino acids 42-61 of BNIP3 (LDAQHESGRSSSKSSHCDSP)”, the “effect on infarct size (in words)” value ([4]; wild-type mice) is reported as “not effective”, the “apoptotic and necrotic cell death” value [5] is reported as “not effective” and the “translocation of human BNIP3 to mitochondria” value [5] is reported as “not effective”. The “mitochondrial inner membrane depolarization / loss of mitochondrial inner membrane potential” value [5] was “not effective” and the “BNIP3 … to / interaction with mitochondria” value [6] was “does not”.

With “TAT-BNIP3-8B: TAT PTD covalently attached to WVELHFFN (BNIP3 amino acids 13-20 with Ser-19 to Phe-19 substitution, SEQ ID NO: 8)” the “mitochondrial swelling (OD540)” value [7] was “prevents mitochondrial swelling”, the toxicity in cardiomyocytes [8] was “no signs of overt toxicity” and the “reduction of infarct size” value ([4]; wild-type mice, peptide into left ventricle 5 min before reperfusion, vs vehicle) was “up to 40%”. For the same molecule, the “half-life in human serum, plasma and whole blood” value [9] was “enables its in vivo inhibitory capacity”, the “reduction of cerebral infarct size” value [10] was 52% and the “apoptotic and necrotic cell death” value [5] was “markedly inhibits necrotic and apoptotic cell death”. The “mitochondrial inner membrane depolarization / loss of mitochondrial inner membrane potential” value [5] was “markedly inhibits”, the “binding to BNIP3” value [11] was “binds to BNIP3” and the “reduction of myocardial infarct size” value [12] was 56%. The “uptake / tissue distribution” value [13] was “taken up by the heart, spleen and liver and is present in the plasma”, the “interaction with endogenous BNIP3 / BAX (co-immunoprecipitation)” value ([6]; 5 min of reperfusion, fluorescence-labelled peptide) was “endogenous BNIP3 and BAX mono, homo- and heterodimers co-immunoprecipitated” and the “down-stream cell death machinery (mitochondrial swelling, BAX activation, cytochrome c release, caspase-3 activity)” value ([6]; 10 min to 4 h of reperfusion) was “inhibition of the down-stream cell death machinery”. For the same molecule, the “BNIP3 … to / interaction with mitochondria” value [6] was “prevents BNIP3 and BAX translocation to the mitochondria” and the BNIP3/BAX oligomerization ([6]; cytosol of area at risk, 10 minutes reperfusion, blue native-PAGE) was “strongly inhibited”.

B1: BNIP3: BNIP3 protein restituted to BNIP3 deficient mice (TAT-BNIP3 doses, FIG. 1C) (protein)
chain: MSQSGEENLQGSWVELHFSNGNGSSVPASVSIYNGDMEKILLDAQHESGRSSSKSSHCDSPPRSQTPQDTNRAEIDSHSFGEKNSTLSEEDYIERRREVESILKKNSDWIWDWSSRPENIPPKEFLFKHPKRTATLSMRNTSVMKKGGIFSADFLKVFLPSLLLSHLLAIGLGIYIGRRLTTSTSTF
With B1 the “infarct size after restitution of BNIP3” value ([4]; BNIP3 deficient (Bnip3−/−) mice) was “infarct sizes comparable to wild-type mice in a dose-dependent manner” and the “mitochondrial BAX translocation after addition of BNIP3” value ([6]; BNIP3 deficient mouse hearts, early phase of reperfusion) was “restored the BAX translocation”.

Source: patent publication US12540166B2, “BNIP3 peptides for treatment of reperfusion injury” (Bimyo GmbH, priority 2019, dated 2026)
